Target: T1, A-type voltage-gated potassium channel KCND3 (Homo sapiens, UniProt Q9UK17)
T1 sequence (Q9UK17 whole entry): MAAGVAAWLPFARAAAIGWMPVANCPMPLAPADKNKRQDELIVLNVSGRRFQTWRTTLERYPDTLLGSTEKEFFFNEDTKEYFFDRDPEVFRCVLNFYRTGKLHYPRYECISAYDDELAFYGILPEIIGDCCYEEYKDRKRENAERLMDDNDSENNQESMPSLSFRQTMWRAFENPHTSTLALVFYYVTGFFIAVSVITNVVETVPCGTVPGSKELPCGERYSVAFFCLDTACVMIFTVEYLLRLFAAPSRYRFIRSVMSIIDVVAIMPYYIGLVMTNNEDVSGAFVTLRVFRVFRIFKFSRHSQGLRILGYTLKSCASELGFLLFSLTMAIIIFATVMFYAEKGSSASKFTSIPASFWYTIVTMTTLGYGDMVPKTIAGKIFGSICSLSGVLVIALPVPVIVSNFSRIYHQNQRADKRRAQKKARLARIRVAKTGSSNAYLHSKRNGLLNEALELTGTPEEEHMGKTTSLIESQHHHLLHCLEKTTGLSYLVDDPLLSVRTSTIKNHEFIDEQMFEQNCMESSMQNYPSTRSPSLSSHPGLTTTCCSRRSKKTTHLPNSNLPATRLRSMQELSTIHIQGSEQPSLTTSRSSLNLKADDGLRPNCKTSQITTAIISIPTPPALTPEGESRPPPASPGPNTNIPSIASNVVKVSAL
Assay: Inhibition of Kv4.3 channel (unknown origin); call rule not given here

With `OC(CNC1CCCCC1)Cn1c2ccc(Br)cc2c2cc(Br)ccc21` (racemic) the “inhibition (INH)” value was “Not Active”.

— ChEMBL document CHEMBL3098117, “Identification and optimization of an aminoalcohol-carbazole series with antimalarial properties” (ACS Med Chem Lett, 2013)
